Results taken from ChEMBL document CHEMBL5584347, “Development of Nitric Oxide Releasing Oxoisoaporphines with Antidepressant Activities by Simultaneously Regulating MAO-A and SERT” (J Med Chem, 2024).
Active and inactive are the calls of the source. The calls are words filed in the database; no cut-off is given here.

Assays:
Danio rerio [1] = test: Antidepressant activity in reserpine-induced depressive zebrafish model assessed as increase in total distance traveled at 0.5 to 1 uM preadministered with reserpine for 40 mins followed by compound administration and measured after 7 days by novel tank test; assay type: functional, organism-based; settings: dose 0.5-1 µM, time 7.0 day
[2] = Toxicity in C57 mouse assessed as necrosis in liver at 5 to 10 mg/kg administered continuously for 2 weeks by H and E staining based analysis; assay type: organism-based; settings: in vivo, 336 h, dose 5-10 mg/kg
[3] = Toxicity in C57 mouse assessed as effect on liver pathology at 5 to 10 mg/kg administered continuously for 2 weeks by H and E staining based analysis; assay type: organism-based; settings: in vivo, 336 h, dose 5-10 mg/kg
[4] = Toxicity in C57 mouse assessed as effect on lung morphology at 5 to 10 mg/kg administered continuously for 2 weeks by H and E staining based analysis; assay type: organism-based; settings: in vivo, 336 h, dose 5-10 mg/kg
[5] = Toxicity in C57 mouse assessed as effect on lung structure at 5 to 10 mg/kg administered continuously for 2 weeks by H and E staining based analysis; assay type: organism-based; settings: in vivo, 336 h, dose 5-10 mg/kg
Mus musculus [6] = test: Antidepressant activity in chronic unpredictable mild stress induced depressive C57 mouse model assessed as reduction in neuronal cell damage in hippocampus at 5 to 10 mg/kg administered continuously for 2 weeks post 5 weeks of chronic unpredictable mild stress by H and E staining based analysis; assay type: functional, organism-based; settings: dose 5-10 mg/kg
PC-12 [7] = test: Neuroprotective activity against corticosterone-induced cell injury in rat PC-12 cells assessed as increase in cell viability at 0.1 to 1 uM incubated for 24 hrs by CCK8 assay; assay type: functional, cell-based; settings: dose 0.1-1 µM
[8] = Toxicity in C57 mouse assessed as necrosis in kidney at 5 to 10 mg/kg administered continuously for 2 weeks by H and E staining based analysis; assay type: organism-based; settings: in vivo, 336 h, dose 5-10 mg/kg
Mus musculus [9] = test: Antidepressant activity in chronic unpredictable mild stress induced depressive C57 mouse model assessed as decrease in SERT expression in brain at 5 to 10 mg/kg administered continuously for 2 weeks post 5 weeks of chronic unpredictable mild stress by Western blot analysis; assay type: functional, organism-based; settings: dose 5-10 mg/kg
[10] = Toxicity in C57 mouse assessed as effect on kidney morphology at 5 to 10 mg/kg administered continuously for 2 weeks by H and E staining based analysis; assay type: organism-based; settings: in vivo, 336 h, dose 5-10 mg/kg
[11] = Toxicity in C57 mouse assessed as effect on spleen structure at 5 to 10 mg/kg administered continuously for 2 weeks by H and E staining based analysis; assay type: organism-based; settings: in vivo, 336 h, dose 5-10 mg/kg
Mus musculus [12] = test: Antidepressant activity in chronic unpredictable mild stress induced depressive C57 mouse model assessed as increase in total distance traveled at 5 to 10 mg/kg administered continuously for 2 weeks post 5 weeks of chronic unpredictable mild stress by open field test; assay type: functional, organism-based; settings: dose 5-10 mg/kg
[13] = Toxicity in C57 mouse assessed as effect on kidney structure at 5 to 10 mg/kg administered continuously for 2 weeks by H and E staining based analysis; assay type: organism-based; settings: in vivo, 336 h, dose 5-10 mg/kg
[14] = Cytotoxicity against human L02 cells incubated for 24 hrs by MTT assay; assay type: toxicity, cell-based
Mus musculus [15] = test: Upregulation of 5-HT level in mouse at 10 mg/kg; assay type: functional, organism-based
[16] = Toxicity in C57 mouse assessed as effect on liver size at 5 to 10 mg/kg administered continuously for 2 weeks by H and E staining based analysis; assay type: organism-based; settings: in vivo, 336 h, dose 5-10 mg/kg
[17] = Toxicity in C57 mouse assessed as effect on heart size at 5 to 10 mg/kg administered continuously for 2 weeks by H and E staining based analysis; assay type: organism-based; settings: in vivo, 336 h, dose 5-10 mg/kg
[18] = Toxicity in C57 mouse assessed as necrosis in spleen at 5 to 10 mg/kg administered continuously for 2 weeks by H and E staining based analysis; assay type: organism-based; settings: in vivo, 336 h, dose 5-10 mg/kg
Mus musculus [19] = test: Antidepressant activity in chronic unpredictable mild stress induced depressive C57 mouse model assessed as increase in nitric oxide content in brain at 5 to 10 mg/kg administered continuously for 2 weeks post 5 weeks of chronic unpredictable mild stress by absorbance based analysis; assay type: functional, organism-based; settings: dose 5-10 mg/kg
Danio rerio [20] = test: Antidepressant activity in reserpine-induced depressive zebrafish model assessed as increase in time spend in upper part at 0.5 to 1 uM preadministered with reserpine for 40 mins followed by compound administration and measured after 7 days by novel tank test; assay type: functional, organism-based; settings: dose 0.5-1 µM, time 7.0 day
[21] = Toxicity in zebrafish embryo assessed as morphological changes at 0.1 to 10 uM administered with compound starting from 6 hours fertilization and measured at 48 to 120 hours post fertilization; set-up: species or system Danio rerio; settings: in vivo, dose lower 0.1 µM, time lower 42 hrs, dose upper 10 µM, time upper 114 hrs
Mus musculus [22] = test: Antidepressant activity in chronic unpredictable mild stress induced depressive C57 mouse model assessed as reduction in resting time at 5 to 10 mg/kg administered continuously for 2 weeks post 5 weeks of chronic unpredictable mild stress by forced swimming test; assay type: functional, organism-based; settings: dose 5-10 mg/kg
[23] = Toxicity in C57 mouse assessed as effect on heart structure at 5 to 10 mg/kg administered continuously for 2 weeks by H and E staining based analysis; assay type: organism-based; settings: in vivo, 336 h, dose 5-10 mg/kg
PC-12 [24] = test: Neuroprotective activity against corticosterone-induced cell injury in rat PC-12 cells assessed as increase in nitric oxide content at 0.2 uM by absorbance based assay; assay type: functional
[25] = Toxicity in C57 mouse assessed as effect on spleen size at 5 to 10 mg/kg administered continuously for 2 weeks by H and E staining based analysis; assay type: organism-based; settings: in vivo, 336 h, dose 5-10 mg/kg
[26] = Toxicity in C57 mouse assessed as effect in spleen pathology at 5 to 10 mg/kg administered continuously for 2 weeks by H and E staining based analysis; assay type: organism-based; settings: in vivo, 336 h, dose 5-10 mg/kg
Mus musculus [27] = test: Antidepressant activity in chronic unpredictable mild stress induced depressive C57 mouse model assessed as reduction in resting time at 5 to 10 mg/kg administered continuously for 2 weeks post 5 weeks of chronic unpredictable mild stress by tail suspension test; assay type: functional, organism-based; settings: dose 5-10 mg/kg
Danio rerio [28] = test: Antidepressant activity in reserpine-induced depressive zebrafish model assessed as increase in speed of movement at 0.5 to 1 uM preadministered with reserpine for 40 mins followed by compound administration and measured after 7 days by novel tank test; assay type: functional, organism-based; settings: dose 0.5-1 µM, time 7.0 day
[29] = Toxicity in C57 mouse assessed as effect on heart pathology at 5 to 10 mg/kg administered continuously for 2 weeks by H and E staining based analysis; assay type: organism-based; settings: in vivo, 336 h, dose 5-10 mg/kg
[30] = Toxicity in C57 mouse assessed as effect on liver structure at 5 to 10 mg/kg administered continuously for 2 weeks by H and E staining based analysis; assay type: organism-based; settings: in vivo, 336 h, dose 5-10 mg/kg
Mus musculus [31] = test: Antidepressant activity in reserpine induced depressive mouse model assessed as 5-HT level in brain at 10 mg/kg preadministered with reserpine for 3 days followed by compound addition from day 4 to 10 by LC-MS analysis (reference value: 186.46 ng/ml); assay type: functional; settings: time 7 day
Danio rerio [32] = test: Antidepressant activity in reserpine-induced depressive zebrafish model assessed as increase in total distance traveled at 0.5 to 1 uM preadministered with reserpine for 40 mins followed by compound administration and measured after 7 days by open field test; assay type: functional, organism-based; settings: dose 0.5-1 µM, time 7.0 day
Mus musculus [33] = test: Antidepressant activity in reserpine induced depressive mouse model assessed as 5-HT level in brain at 5 mg/kg preadministered with reserpine for 3 days followed by compound addition from day 4 to 10 by LC-MS analysis (reference value: 186.46 ng/ml); assay type: functional; settings: time 7 day
Mus musculus [34] = test: Antidepressant activity in chronic unpredictable mild stress induced depressive C57 mouse model assessed as increase in number of upright movements at 5 to 10 mg/kg administered continuously for 2 weeks post 5 weeks of chronic unpredictable mild stress by open field test; assay type: functional, organism-based; settings: dose 5-10 mg/kg

In the case of `O=C1c2ccccc2-c2nccc3cc(OCCCO[N+](=O)[O-])cc1c23`, the Activity (Danio rerio [1]) is reported as “Active”, the Activity [2] is reported as “Non-Toxic” and the Activity [3] is reported as “Non-Toxic”. The Activity [4] was “Non-Toxic”, the Activity [5] was “Non-Toxic” and the Activity (Mus musculus [6]) was “Active”. For the same molecule, the Activity (PC-12 [7]) was “Active”, the Activity [8] was “Non-Toxic” and the Activity (Mus musculus [9]) was “Active”. The Activity [10] was “Non-Toxic”, the Activity [11] was “Non-Toxic” and the Activity (Mus musculus [12]) was “Active”. For the same molecule, the Activity [13] was “Non-Toxic”, the IC50 at 24 h [14] was greater than 100 µM and the Activity (Mus musculus [15]) was “Active”. The Activity [16] was “Non-Toxic”, the Activity [17] was “Non-Toxic” and the Activity [18] was “Non-Toxic”. The Activity (Mus musculus [19]) was “Active”, the Activity (Danio rerio [20]) was “Active” and the Activity [21] was “Non-Toxic”. The Activity (Mus musculus [22]) was “Active”, the Activity [23] was “Non-Toxic” and the Activity (PC-12 [24]) was “Active”. For the same molecule, the Activity [25] was “Non-Toxic”, the Activity [26] was “Non-Toxic” and the Activity (Mus musculus [27]) was “Active”. The Activity (Danio rerio [28]) was “Active”, the Activity [29] was “Non-Toxic” and the Activity [30] was “Non-Toxic”. For the same molecule, the Activity (Mus musculus [31]) was 643.87 ng/mL, the Activity (Danio rerio [32]) was “Active” and the Activity (Mus musculus [33]) was 508.39 ng/mL. For the same molecule, the Activity (Mus musculus [34]) was “Active”.
